“Also recorded” adds a separate entry of the source.
Assays:
WT mice = assay: Novel Object Recognition Test (NOR); type: in vivo, mouse; conditions: for memory formation and consolidation in NOR: 24, 48, 72 and 120 h (up to 5 days)
Method: a) After a 5 min habituation session in the empty arena on day 1, mice were injected with RB5 (20 mg/kg) or vehicle one hour before the training session with two identical objects on day 2 and were then evaluated for their long-term memory on subsequent days. Discrimination Index (D.I.) was tested at different time points 24, 48, 72, and 120 hrs (a) and also up to 168 h (b). […] On subsequent days, while the RB5 group remained high, the Scramble group returned to basal levels. *p<0.01**p<0.0001. […] At 24 h, D.I. of RB5 group was highly significant (Independent sample t-test t26=4.428 P<0.01, SCR (n=14) RB5 (=14)) as well as at 48 h (Independent sample t-test t38=4.210 P<0.0001, SCR (n=18) RB5 (=22)). […] P<0.001, P<0.01.
The test was performed in an open square box (45×45×45 cm), placed in a quiet room with dim light. The objects used were: parallelepipeds in metal and glass vials filled with water. They had no natural significance for mice and they had never been associated with reinforcement before. The protocol required three days and it was performed as follows:
First day: the mice were individually placed in the empty arena for 5 min in order to familiarize with it and to measure their anxiety (thigmotaxis trial). The percentage of thigmotaxis is calculated as the time spent in the peripheral zone out of the total time spent in the arena (300 sec.). Animals showing a thigmotaxis>90% are discarded from the sample because considered biased for anxiety.
Second day: Mice were injected with either […] CPP-SCR or CPP-RB5 1 h prior to training and then they were placed into the arena for 10 minutes, where they were allowed to explore two identical objects (training trial). Therefore, two different measures (in seconds) for Left Object and Right Object were obtained. […] Then, percentages of exploration for each object were calculated as: the time spent exploring LO or RO, out of the total time of exploration (RO+LO). According to these percentages, experimenter decided where to place the novel object for the test trial.
Third day: one of the two identical objects (Parallelepiped) was changed with a new object (Vial) and the mice were allowed to explore them for 10 minutes (test trial).
Times of exploration for the familiar object (FO) and for the novel object (NO) were separately recorded, with the same procedure as for the training trial. A cut-off of 6 seconds was also considered. In order to attest recognition memory, a discrimination index (D.I.) was calculated as (total time of exploration of NO−total time of exploration of FO)/total time of exploration of (FO+NO). D.I. index is comprised between −1 and +1. A D.I. of 1 would mean perfect memory retention for the […]. Conversely, the more time the animal spends exploring FO the lower will be the D.I. value, meaning poor memory retention for FO. SMART software (Panlab, Barcelona, Spain) was used to run the experiment.

Tg2576 mice = assay: Contextual Fear Conditioning in Tg2576 mice; type: in vivo, mouse; conditions: 20 mg/kg i.p. before CFC training, retention 24 h later
Method: 7 months old Tg2576 mice and WT mice were treated with either CPP-SCR or CPP-RB5 (20 mg/kg, i.p.) before Contextual Fear Conditioning (CFC) training and tested for memory retention 24 h later. Contextual Fear (CF) memory impairment in Tg2576 mice is fully rescued by RB5 treatment. Values are reported as % of time spent freezing. Data are expressed as Mean±SEM. *p<0.05**p<0.01.
Mice protocol: after 120 sec of exploration, mice received 5 foot shocks (0.7 mA, 2-s duration, separated by 60-s intervals) delivered through the grid floor. Context Fear Memory was assessed 24 h later by returning mice for 5 min to the conditioning chamber and not delivering a foot shock.
For all protocols, freezing behavior served as a measure of conditioned fear to the context during the conditioning and retrieval tests of the behavioural procedures. This was video-recorded and quantified by an observer blind to the experimental group. One unit of freezing was defined as a continuous absence of movement other than that required for respiration in 1 s sampled every 10 s.

Compound: CSCC[C@H](NC(=O)[C@H](CCC(=O)O)NC(=O)[C@@H](NC(=O)[C@H](CCC(=O)O)NC(=O)CNC(=O)[C@@H]1CCCN1C(=O)[C@@H](NC(=O)CNC(=O)[C@@H]1CCCN1C(=O)CNC(=O)[C@@H](NC(=O)CNC(=O)[C@H](CCC(=O)O)NC(=O)[C@@H](NC(=O)[C@H](CCCNC(=N)N)NC(=O)[C@H](CCCNC(=N)N)NC(=O)[C@@H]1CCCN1C(=O)[C@H](CCC(=O)O)NC(=O)CNC(=O)CNC(=O)CNC(=O)CNC(=O)CNC(=O)[C@H](CCC(N)=O)NC(=O)[C@@H]1CCCN1C(=O)[C@@H]1CCCN1C(=O)[C@H](CCCNC(=N)N)NC(=O)[C@H](CCCNC(=N)N)NC(=O)[C@H](CCCNC(=N)N)NC(=O)[C@H](CCC(N)=O)NC(=O)[C@H](CCCNC(=N)N)NC(=O)[C@H](CCCNC(=N)N)NC(=O)[C@H](CCCCN)NC(=O)[C@H](CCCCN)NC(=O)[C@H](CCCNC(=N)N)NC(=O)CNC(C)=O)[C@@H](C)O)C(C)C)C(C)C)C(C)C)C(=O)N[C@H](C(=O)N[C@@H](CCCCN)C(=O)NCC(=O)N[C@@H](CCC(N)=O)C(=O)N1CCC[C@H]1C(=O)N[C@@H](Cc1ccccc1)C(=O)N[C@@H](CC(=O)O)C(=O)N[C@@H](C(=O)O)C(C)C)C(C)C [RB5]
- memory formation and consolidation in NOR (WT mice): significantly enhanced
- Discrimination Index (D.I.) (WT mice; 24 h, 20 mg/kg 1 h before training): significantly higher than the Scramble group
- Discrimination Index (D.I.) (WT mice; 48 h, vs chance level): greatly above it
- Discrimination Index (D.I.) (WT mice; 72 h): remained highly significant
- Discrimination Index (D.I.) (WT mice; 120 h): still highly significant
- Discrimination Index (D.I.) / performance (WT mice; 168 h): dropped to basal levels indistinguishable from SCR group; also recorded: went down to basal levels indistinguishable from SCR group
- Contextual Fear (CF) memory impairment (% of time spent freezing) (Tg2576 mice): fully rescued

Compound: GRKKRRQRRRPPQGGGGGEPRRTEGVGPGVPGEVEMVKGQPFDV (listed as Homo sapiens) [CPP-RB5]
- memory formation and consolidation in NOR (WT mice): greater performances in remembering the object
- Contextual Fear (CF) memory impairment (% of time spent freezing) (Tg2576 mice): rescued already present memory impairments in aged Tg2576 mice back to WT levels

From patent US11471502B2, “Neuroprotective peptide” (UNIVERSITY COLLEGE CARDIFF C[…], priority 2017, dated 2022)
